Experimental data as given in US5977156A (priority 1996, dated 1999).
Converted amounts (≈) assume the structure as drawn. Read-outs that look alike come from different tables or passages of the source.

Columns and labels:
[1] = test system: Pyricularia oryzae (leaf blast); format: in vivo, also called Magnaporthe grisae; conditions: vs insecticide-treated control plots, after 2 months
[2] = test system: Helminthosporium oryzae (brown spot); assay: Rice seed treatment field trial, attack type 2 (brown spot); format: in vivo, also called Cochliobolus miyabeanus; conditions: vs insecticide-treated control plots, after 2 months
Fusarium moniliforme = assay: Maize seed treatment against root rot; format: in vivo; conditions: maize (Pinnacle), control 92
Description: This example illustrates application against root rot (Fusarium moniliforme).
Maize seeds (variety Pinnacle) were treated in the proportion of 125 and 250 g of active material per 100 kg of seeds.
These seeds are sown in 7×7 cm pots filled with vermiculite in the proportion of 5 seeds per pot. Infection is carried out by introducing, into the vicinity of the seeds, in the upper part of the substrate, 10 ml of an aqueous suspension containing 400000 spores of Fusarium moniliforme per ml.
These pots are then maintained at 80% humidity for 3 weeks at 8° C. and then for 2 weeks at 16° C.
The seedlings carrying the disease (unemerged seedlings and seedlings with slowed and deformed growth) are then counted and the results shown in the table below (expressed as percentage) were obtained. The control seedlings correspond to pots in which untreated maize seeds have been sown, which seeds have been infected with the disease.

[3] = test system: Rhizoctonia solani (sheath blight); assay: Rice seed treatment field trial, attack type 1 (sheath blight); format: in vivo, also called Pellicularia sasakii; conditions: vs insecticide-treated control plots, after 2 months
[4] = test system: Rhynchosporium oryzae (leaf scald); assay: Rice seed treatment field trial, attack type 5 (leaf scald = leaf tip blight); format: in vivo; conditions: vs insecticide-treated control plots, after 2 months
Microdochium nivale = assay: Wheat seed treatment against snow mould; format: in vivo; conditions: wheat (Ixos), naturally infected, control 96
Description: This example illustrates application against snow mould (Microdochium nivale).
Wheat seeds (variety Ixos), naturally infected with Microdochium nivale, were treated in the proportion of 5, 10, 25, 50 and 100 g of active material per 100 kg of seeds.
(§1) These seeds are sown in 7×7 cm pots filled with a peat/pozzolana mixture in the proportion of 25 seeds per pot.
These pots are maintained at 5° C. and in darkness for 3 weeks and are then placed at 10° C. under artificial light for 1 week. They are finally placed under glass, on sand kept moist by regular sprinkling, at 20° C. and 60% relative humidity for 1 week.
The seedlings carrying the disease (unemerged seedlings and deformed seedlings) are then counted and the results shown in the table below (expressed as percentage) are obtained. The control seedlings correspond to pots in which wheat seeds, naturally infected with the disease, have been sown, which seeds have not been treated.

[5] = test system: Puccinia recondita forma speciae tritici; assay: Wheat seed treatment against brown rust; format: in vivo; conditions: wheat (Theseus), infected foliar area, control 61
Description: EXAMPLE 8 This example illustrates application against brown rust of wheat (Puccinia recondita forma speciae tritici).
Wheat seeds (variety Theseus) were treated in the proportion of 10, 25, 50 and 100 g of active material per 100 kg of seeds.
These seeds are sown in 7×7 cm pots filled with a peat/pozzolana mixture in the proportion of 40 to 50 seeds per pot.
These pots are maintained at 10° C. under artificial light for 3 weeks, so that they arrive at the growth stage known as the 1-2-leaf stage.
Infection is then carried out by spraying an aqueous suspension containing 100000 spores of Puccinia recondita per ml.
The pots are then placed at 20° C. and 100% relative humidity for 24 hours and then under glass, on sand kept moist by regular sprinkling, at 20° C. and 80% relative humidity for 10 days.
The infected foliar area of the 1st leaf is then quantified visually.
The results shown in the table below (expressed as percentage) are obtained. The control seedlings correspond to pots in which untreated wheat seeds have been sown, which seeds have been infected by the disease.

Rhizoctonia solani = assay: Cotton seed treatment against damping off; format: in vivo; conditions: cotton (DP 50), 17 days; for Total damping off (in %): pre-+post-emergence, control 80; for Pre-emergence damping off (in %): control 70
Description: This example illustrates application against damping off (Rhizoctonia solani).
Cotton seeds (variety DP 50) were treated in the proportion of 125, 250 and 500 g of active material per 100 kg of seeds.
These seeds are sown in 7×7 cm pots filled with a peat/pozzolana mixture which has been pre-infected by incorporation of 1 part of an aqueous suspension containing milled Rhizoctonia solani mycelium in 1600 parts of substrate. Each pot contains 5 cotton seeds.
These pots are then placed under glass at a temperature of 25° C. and at a relative humidity of 80% for 17 days.
The results with respect to early damping off (pre-emergence) and with respect to all the damping off attacks (pre-+post-emergence) are shown in the table below (expressed as percentage). The control seedlings correspond to pots filled with a substrate infected with the disease in which untreated cotton seeds have been sown.

Sphacelotheca reiliana = assay: Maize seed treatment against head smut; format: in vivo; conditions: maize (Adonis), 250 g/100 kg seeds, 3 months after sowing
Description: This example illustrates application against head smut (Sphacelotheca reiliana).
Maize seeds (variety Adonis) were treated in the proportion of 250 g of active material per 100 kg of seeds.
These seeds are sown in 9×9 cm pots filled with a mixture of compost and coarse sand which has been pre-infected by incorporation of Sphacelotheca reiliana spores according to 2 infectious doses: […] of substrate. Each pot contains 5 maize seeds.
These pots are then placed under glass on sand kept moist by regular sprinkling, at a temperature of 20° C. and a relative humidity of 60%.
Three months after sowing, the seedlings carrying the disease (presence or absence of smut in the maize inflorescences) are counted and the results shown in the table below (expressed as percentage) are obtained. The control seedlings correspond to pots filled with a substrate infected with the disease in which untreated maize seeds have been sown.

[6] = test system: Grain discoloration (Pseudomonas spp., Erwinia herbicola, Helminthosporium oryzae and/or Alternaria spp.); assay: Rice seed treatment field trial, attack type 7 (grain discoloration); format: in vivo; conditions: vs insecticide-treated control plots
Pyrenophora graminea = assay: Barley seed treatment against leaf stripe; format: in vivo; conditions: barley (Agneta), naturally infected, 100 g/100 kg seeds
Description: This example illustrates application against leaf stripe (Pyrenophora graminea).
Barley seeds (variety Agneta), naturally infected with Pyrenophora graminea, were treated in the proportion of 100 g of active material per 100 kg of seeds.
as §1
These pots are maintained at 5° C. and in darkness for 3 weeks and are then placed at 10° C. under artificial light for 1 week. They are finally placed under glass, on sand kept moist by regular sprinkling, at 20° C. and 60% relative humidity for 3 weeks.
The seedlings carrying the disease (seedlings carrying off-white streaks along the leaves) are then counted and the following results (expressed as percentage) are obtained. The control seedlings correspond to pots in which barley seeds, naturally infected with the disease, have been sown, which seeds have not been treated. Two successive tests were carried out.

[7] = test system: Pyricularia oryzae (neck blast); format: in vivo; conditions: vs insecticide-treated control plots, after 2 months
Gloeophyllum trabeum = assay: Inhibition of growth of wood-degrading fungus on agar; format: cell-based; conditions: agar culture medium, 20° C., read-out: IC50 (50% inhibition of the growth of the fungus)
Description: (§2) This example illustrates application against fungi which degrade wood.
(§3) Agar culture medium containing different doses of the active material to be tested is introduced into petri dishes.
(§4) Petri dishes with the same culture medium without the active material are prepared in order to act as control.
(§5) One day after the preparation of these petri dishes, agar implants supporting a fungal culture are deposited at the center of each petri dish. The fungi tested are: Serpula lacrymans, Coniophora puteana (dry and wet rots) and Gleophyllum trabeum.
(§6) The petri dishes are then placed at 20° C. until the results are recorded. The results are read when the untreated control culture has colonized virtually all the dish. The diameter of the fungal cultures is then measured and the concentration of active material causing 50% inhibition of the growth of the fungus (called the IC50) is calculated.

Serpula lacrymans = assay: as above; format: cell-based; conditions: agar culture medium, 20° C., read-out: IC50 (50% inhibition of the growth of the fungus)
Description: as §2, §3, §4, §5, §6

Coniophora puteana = assay: as above; format: cell-based; conditions: agar culture medium, 20° C., read-out: IC50 (50% inhibition of the growth of the fungus)
Description: as §2, §3, §4, §5, §6

[8] = test system: Sheath rot (Acrocylindrium oryzae and/or Gaeumannomyces graminis and/or Helminthosporium oryzae); assay: Rice seed treatment field trial, attack type 6 (sheath rot); format: in vivo; conditions: vs insecticide-treated control plots, after 2 months
[9] = Ex. 1: 40 g/100 kg rice seed, 150 kg/ha
[10] = Ex. 2: 40 g/100 kg rice seed, 200 kg/ha
[11] = Ex. 3: 40 g/100 kg rice seed, 150 kg/ha, pregerminated
[12] = Ex. 4: 40 g/100 kg rice seed, 200 kg/ha, pregerminated

## N#Cc1nn(-c2c(Cl)cc(C(F)(F)F)cc2Cl)c(N)c1[S+]([O-])C(F)(F)F (stereo not shown) [Compound A, 5-amino-3-cyano-1-(2,6-dichloro-4-trifluoromethyl)phenyl-4-trifluoromethylsulfinylpyrazole]
[1]; [9]
  number of sheaths attacked; result observed, expressed as percentage: 82 percentage
[1]; [10]
  number of sheaths attacked; result observed, expressed as percentage: 90 percentage
[1]; [11]
  number of sheaths attacked; result observed, expressed as percentage: 82 percentage
[1]; [12]
  number of sheaths attacked; result observed, expressed as percentage: 90 percentage
[2]; [9]
  area of leaves attacked; result observed, expressed as percentage: 79 percentage
[2]; [10]
  area of leaves attacked; result observed, expressed as percentage: 87 percentage
[2]; [11]
  area of leaves attacked; result observed, expressed as percentage: 79 percentage
[2]; [12]
  area of leaves attacked; result observed, expressed as percentage: 87 percentage
Fusarium moniliforme; 125 g/100 kg seeds
  Number of diseased seedlings (in %): 72%
Fusarium moniliforme; 250 g/100 kg seeds
  Number of diseased seedlings (in %): 76%
[3]; [9]
  number of sheaths attacked; result observed, expressed as percentage: 55 percentage
[3]; [10]
  number of sheaths attacked; result observed, expressed as percentage: 60 percentage
[3]; [11]
  number of sheaths attacked; result observed, expressed as percentage: 55 percentage
[3]; [12]
  number of sheaths attacked; result observed, expressed as percentage: 60 percentage
[4]; [9]
  number of leaves having a withered part; result observed, expressed as percentage: 57 percentage
[4]; [10]
  number of leaves having a withered part; result observed, expressed as percentage: 63 percentage
[4]; [11]
  number of leaves having a withered part; result observed, expressed as percentage: 57 percentage
[4]; [12]
  number of leaves having a withered part; result observed, expressed as percentage: 63 percentage
Microdochium nivale; 5 g/100 kg seeds
  Number of diseased seedlings (in %): 89%
Microdochium nivale; 10 g/100 kg seeds
  Number of diseased seedlings (in %): 82%
Microdochium nivale; 25 g/100 kg seeds
  Number of diseased seedlings (in %): 89%
Microdochium nivale; 50 g/100 kg seeds
  Number of diseased seedlings (in %): 85%
Microdochium nivale; 100 g/100 kg seeds
  Number of diseased seedlings (in %): 80%
[5]; 10 g/100 kg seeds
  Infection of the 1st leaf (in %): 47%
[5]; 25 g/100 kg seeds
  Infection of the 1st leaf (in %): 37%
[5]; 50 g/100 kg seeds
  Infection of the 1st leaf (in %): 17%
[5]; 100 g/100 kg seeds
  Infection of the 1st leaf (in %): 2%
Rhizoctonia solani; 125 g/100 kg seeds
  Total damping off (in %): 50%
  Pre-emergence damping off (in %): 45%
Rhizoctonia solani; 250 g/100 kg seeds
  Total damping off (in %): 60%
  Pre-emergence damping off (in %): 45%
Rhizoctonia solani; 500 g/100 kg seeds
  Total damping off (in %): 50%
  Pre-emergence damping off (in %): 10%
Sphacelotheca reiliana; infectious dose 0.125 g/kg, control 67
  Number of diseased seedlings (in %): 46%
Sphacelotheca reiliana; infectious dose 0.25 g/kg, control 71
  Number of diseased seedlings (in %): 40%
[6]; [9]
  number of grains in which the normal yellow color is replaced by brown blemishes; result observed, expressed as percentage: 63 percentage
[6]; [10]
  number of grains in which the normal yellow color is replaced by brown blemishes; result observed, expressed as percentage: 70 percentage
[6]; [11]
  number of grains in which the normal yellow color is replaced by brown blemishes; result observed, expressed as percentage: 63 percentage
[6]; [12]
  number of grains in which the normal yellow color is replaced by brown blemishes; result observed, expressed as percentage: 70 percentage
Pyrenophora graminea; Test No. 1, control 50
  Number of diseased seedlings (in %): 34%
Pyrenophora graminea; Test No. 2, control 44
  Number of diseased seedlings (in %): 29%
[7]; [9]
  number of plants attacked just below the ear; result observed, expressed as percentage: 35 percentage
[7]; [10]
  number of plants attacked just below the ear; result observed, expressed as percentage: 39 percentage
[7]; [11]
  number of plants attacked just below the ear; result observed, expressed as percentage: 35 percentage
[7]; [12]
  number of plants attacked just below the ear; result observed, expressed as percentage: 39 percentage
Gloeophyllum trabeum
  IC50: 0.3 µg/mL (≈ 0.686 µM)
Serpula lacrymans
  IC50: 14.5 µg/mL (≈ 33.2 µM)
Coniophora puteana
  IC50: 16.3 µg/mL (≈ 37.3 µM)
[8]; [9]
  number of sheaths attacked; result observed, expressed as percentage: 80 percentage
[8]; [10]
  number of sheaths attacked; result observed, expressed as percentage: 88 percentage
[8]; [11]
  number of sheaths attacked; result observed, expressed as percentage: 80 percentage
[8]; [12]
  number of sheaths attacked; result observed, expressed as percentage: 88 percentage
